{"source": "patent US20230049917A1", "about": "“Pharmaceutical Composition of CASR Modulators and Methods and Uses Thereof” (Lupin Limited, priority 2019, published 2023)", "assay": "Phase 2 study: safety assessments (adverse events)", "type": "in vivo, human", "settings": "for patients who discontinued the study due to adverse drug reactions: Main Study", "protocol": "For safety assessments, safety was assessed through the summary of adverse events (AE), physical examinations and electrocardiogram (ECG) measurements, vital signs (e.g., blood pressure, pulse rate, respiratory rate and body temperature), body weight and laboratory data (e.g., haemtaology, biochemistry and urinalysis). All AEs (both serious and non-serious) were derived from spontaneous, unsolicited reports of patients, by observation and by routine open questions. The AE reporting extended from date of informed consent until completion of the final visit. Any ongoing AE at EOS visit was followed until the outcome was evident and resolved, clinically stabilized or a plausible explanation was found. Pre-existing diseases including deranged laboratory values (before participating in the study) were not considered AEs, unless the disease worsened during the study period. Signs and symptoms clearly associated with the disease under study (including symptoms of disease progression) were reported as AEs if they were newly emergent, or were determined as severe or worsening, or if deterioration of disease-related signs and symptoms to be caused directly by the study drug. Physical examination, vital signs (measured in a sitting position after resting for at least 3 minutes), ECG (recorded by qualified personnel after the patient had been resting in the supine position for at least 3 minutes) and clinical laboratory examinations were done as part of safety assessments. Abnormal laboratory values/ECGs/vital signs/physical examination were reported as AEs only if the abnormality was clinically relevant or significant or believed that the abnormality must be reported as an AE. Any dose (and associated symptoms) given to the patient that exceeded the dose prescribed to the patient, at a minimum, was recorded as a non-serious AE in the patient file and CRF/electronic CRF. Any case of overdose leading to an AE or SAE had to be reported to medical monitor according to reporting requirements. In case of an accidental overdose, the patient had to be monitored by for any adverse clinical events, as deemed necessary.", "key": {"[1]": {"settings": "patients not on dialysis, 5 mg BID (N = 16)"}, "[2]": {"settings": "patients not on dialysis, 10 mg QD (N = 37)"}, "[3]": {"settings": "patients not on dialysis, Total in Compound 3 Group (N = 71)"}, "[4]": {"settings": "patients on dialysis, 10 mg QD (N = 34)"}, "[5]": {"settings": "patients on dialysis, 20 mg BID (N = 19)"}, "[6]": {"settings": "patients on dialysis, 25 mg QD (N = 35)"}, "[7]": {"settings": "patients on dialysis, Total in Compound 3 Group (N = 88)"}}}
{"compound": "Cc1ccc([C@@H]2C[C@H](CN[C@H](C)c3cccc4ccccc34)Oc3ccccc32)cc1C(=O)O.Cl", "note": "[Compound 3, 2-methyl-5-((2R,4S)-2-((((R)-1-(naphthalen-1-yl)ethyl)amino)methyl)chroman-4-yl)benzoic acid hydrochloride]", "values": [{"measurement": "patients with hypocalcaemia considered by the investigator to be related to the study drug", "setting": "1 patient each in 10 mg QD, 25 mg QD and 20 mg BID arms", "result": 3, "unit": "patients"}, {"measurement": "symptomatic hypocalcemic effect", "setting": "CKD patients, dose range 5 mg to 50 mg", "result": "no symptomatic hypocalcemic effect"}, {"measurement": "patients who discontinued the study due to adverse drug reactions", "setting": "not on dialysis group", "result": "None"}, {"measurement": "patients who discontinued the study due to adverse drug reactions", "setting": "on dialysis group", "result": "None"}, {"measurement": "adverse events of hyperphosphatemia", "setting": "Phase 2 study, all patients", "result": "no adverse events of hyperphosphatemia"}, {"measurement": "patients experiencing adverse events of hypocalcaemia or hyperphosphatemia", "setting": "patients not on dialysis", "result": "none"}, {"measurement": "Adverse event incidence: Diarrhea", "setting": "[1]", "result": 0, "unit": "%"}, {"measurement": "Adverse event incidence: Nausea", "setting": "[1]", "result": 0, "unit": "%"}, {"measurement": "Adverse event incidence: Vomiting", "setting": "[1]", "result": 0, "unit": "%"}, {"measurement": "Adverse event incidence: Diarrhea", "setting": "[2]", "result": 2.7, "unit": "%"}, {"measurement": "Adverse event incidence: Nausea", "setting": "[2]", "result": 0, "unit": "%"}, {"measurement": "Adverse event incidence: Vomiting", "setting": "[2]", "result": 0, "unit": "%"}, {"measurement": "Adverse event incidence: Diarrhea", "setting": "[3]", "result": 2.7, "unit": "%"}, {"measurement": "Adverse event incidence: Nausea", "setting": "[3]", "result": 0, "unit": "%"}, {"measurement": "Adverse event incidence: Vomiting", "setting": "[3]", "result": 0, "unit": "%"}, {"measurement": "Adverse event incidence: Diarrhea", "setting": "[4]", "result": 0, "unit": "%"}, {"measurement": "Adverse event incidence: Nausea", "setting": "[4]", "result": 0, "unit": "%"}, {"measurement": "Adverse event incidence: Vomiting", "setting": "[4]", "result": 0, "unit": "%"}, {"measurement": "Adverse event incidence: Diarrhea", "setting": "[5]", "result": 0, "unit": "%"}, {"measurement": "Adverse event incidence: Nausea", "setting": "[5]", "result": 5.3, "unit": "%"}, {"measurement": "Adverse event incidence: Vomiting", "setting": "[5]", "result": 0, "unit": "%"}, {"measurement": "Adverse event incidence: Diarrhea", "setting": "[6]", "result": 0, "unit": "%"}, {"measurement": "Adverse event incidence: Nausea", "setting": "[6]", "result": 0, "unit": "%"}, {"measurement": "Adverse event incidence: Vomiting", "setting": "[6]", "result": 0, "unit": "%"}, {"measurement": "Adverse event incidence: Diarrhea", "setting": "[7]", "result": 0, "unit": "%"}, {"measurement": "Adverse event incidence: Nausea", "setting": "[7]", "result": 5.3, "unit": "%"}, {"measurement": "Adverse event incidence: Vomiting", "setting": "[7]", "result": 0, "unit": "%"}]}
